Patent US20250152719A1, “FUSED IMIDE DERIVATIVE” (Chia Tai Tianqing Pharmaceutical Group Co., Ltd., priority 2021, published 2025)
Where two headings read alike, the source gives them in different places.

How the values were obtained:
BTK = BTK (Homo sapiens (Human), UniProt Q06187); assay: BTK degradation in OCI-LY10 cells (Total-BTK HTRF kit); format: cell-based; conditions: 24 (or 6) h incubation; for DC50 / BTK degradation in OCI-LY10 cells Dmax: OCI-LY10 cells; for DC50: DC50 = concentration when degradation rate reaches 50%, read-out: OCI-LY10 cell BTK degradation DC50; for Dmax: OCI-Ly10, OCI-LY10 cells; for Dmax / BTK degradation in OCI-LY10 cells Dmax: maximum degradation rate
In short: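 OCI-LY10 cells seeded overnight, then treated with compound at 100 nM-0.098 nM in duplicate for 24 (or 6) h. Lysates probed by Total-BTK HTRF (d2/Eu cryptate antibodies, overnight, room temperature), read at 665/620 nm; DC50 and Dmax from four-parameter dose-response fits.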

OCI-LY10 cells = assay: Inhibitory activity on OCI-LY10 cell proliferation (CCK-8); format: cell-based
Description: OCI-LY10 cells in a good growth state were collected and added to a centrifuge tube, adjusted to a cell density of 1×10^5 cells/mL, and seeded in a 96-well plate (100 μL/well). The cells were incubated overnight in a cell incubator. Compounds were added using a nanoliter pipettor such that the final concentrations of the compounds were 5000 nM-0.31 nM; the addition was performed in duplicate, and meanwhile, a control was set. After another 72 h of incubation in the cell incubator, 10 μL of CCK-8 (CK04, PP799) was added. After 2.5 h of incubation in the cell incubator, absorbance values were detected at 450 nm using an Envision microplate reader, the four-parameter analysis was performed, the dose-response curves were fit, and IC50 was calculated.

[1] = In vitro liver microsomal stability, mouse; conditions: 0.5 mg/mL microsomes, NADPH, 37° C., 1 h
Description: (§1) Liver microsome incubation samples were prepared by mixing a PBS buffer (pH 7.4), a liver microsome solution (0.5 mg/mL), a test compound, and an NADPH+MgCl2 solution and incubated at 37° C. and 300 rpm for 1 h. Zero-hour samples were prepared by mixing a PBS buffer (pH 7.4), a liver microsome solution (0.5 mg/mL), and a test compound. An acetonitrile solution containing an internal standard was added to the samples, and supernatants were prepared by protein precipitation, diluted, and then assayed by LC/MS/MS.

TMD8-BTK(C481S) cells = assay: Inhibitory activity on TMD8-BTK(C481S) cell proliferation (CCK-8); format: cell-based; conditions: 72 h incubation
In short: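 Cells seeded at 8×10^4 cells/mL, incubated overnight, then treated in duplicate with compounds at 5000 nM-0.31 nM for 72 h. Viability by CCK-8 (4 h, absorbance 450 nm); IC50 from four-parameter dose-response fits.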

[2] = test system: OCI-LY10-BTK(C481S) cells; assay: Inhibitory activity on OCI-LY10-BTK(C481S) cell proliferation (CCK-8); format: cell-based; conditions: 72 h incubation, IC50 per method, unit inferred
Description: OCI-LY10(C481S) cells in the logarithmic growth phase were collected and added to a centrifuge tube, adjusted to a cell density of 5×10^4 cells/mL, and seeded in a 96-well plate (100 μL/well). Meanwhile, compounds were added using a nanoliter pipettor such that the final concentrations of the compounds were 5000 nM-0.31 nM; the addition was performed in duplicate, and meanwhile, a control was set. After another 72 h of incubation in the cell incubator, the detection reagent CCK-8 (manufacturer: Dojindo Laboratories, Beijing; 10 μL/well) was added. After 3 h of incubation in the cell incubator, absorbance values were detected at 450 nm using a PerkinElmer Envision microplate reader, the four-parameter analysis was performed, the dose-response curves were fit, and IC50 was calculated.

[3] = In vitro liver microsomal stability, human; format: in vitro ADME; conditions: 0.5 mg/mL microsomes, NADPH, 37° C., 1 h
Description: as §1

Mouse pharmacokinetics = format: in vivo, ICR mice
Description: ICR mice weighing 18-22 g were randomized into groups of 9 after 3-5 days of acclimatization and then intragastrically given the test compound solution at a dose of 10 mg/kg. Plasma samples to be tested were prepared by taking blood from the orbit at time points of 15 min, 30 min, 1 h, 2 h, 3 h, 4 h, 6 h, 8 h, 10 h, and 24 h. 20 μL of each plasma sample to be detected and a standard curve sample were taken, and an acetonitrile solution containing an internal standard was added. […] Pharmacokinetic parameters were fitted using a non-compartmental model (see Table 5).

TMD-8 xenograft tumors = assay: In vivo drug efficacy, TMD-8 mouse subcutaneous xenograft tumors; parameters: species or system NOD-SCID mice; conditions: 30 mg/kg, qd, i.g.; for TGI d 17: 16 days, tumor weight on day 17; for TV on d 0 Mean ± SD: day 0 (baseline at grouping); for TV on d 12 Mean ± SD: day 12; for TV on d 15 Mean ± SD: day 15
Description: TMD-8 mouse subcutaneous xenograft tumors: TMD-8 (WT) cells at a concentration of 1×10^8/mL were inoculated under aseptic conditions into the right side armpit of NOD-SCID mice at 0.1 mL/mouse. After subcutaneous grafting, the animals were divided into groups with 6 animals in each group when the tumor volume reached about 188 mm^3 (or 200 mm^3):
model group: vehicle, 6 mice; compound administration groups: 30 mg/kg, qd, i.g., 6 mice.
The vehicle or the test compound was intragastrically given at a volume of 4 mL/kg, once daily for 16 consecutive days. The tumor volume was measured 2-3 times a week, and meanwhile, the mice were weighed and the data were recorded; the general behaviors of the animals were observed every day. After all dosing was complete, the animals were sacrificed on day 17, and the tumors were removed and weighed.
The tumor volume and the tumor growth inhibition were calculated using the following formulae:
Tumor volume (TV)=(Length×Width^2)/2.
Tumor growth inhibition (TGI)=(1−tumor weight of treatment group/tumor weight of model group)×100%.

[4] = Homo sapiens, OCI-Ly10, 72 h incubation
[5] = ICR, mouse, plasma, iv, 1 mg/kg, Mouse i.v. 1 mpk
[6] = ICR, mouse, plasma, iv, 1 mg/kg, Mouse i.v. 1 mpk, read-out: AUC
[7] = ICR, mouse, plasma, po, 10 mg/kg, Mouse i.g. 10 mpk
[8] = ICR, mouse, plasma, po, 10 mg/kg, Mouse i.g. 10 mpk, read-out: AUC
[9] = ICR, mouse, plasma, po, 10 mg/kg, Mouse i.g. 10 mpk, read-out: Cmax

Sequence of BTK (Q06187 whole entry): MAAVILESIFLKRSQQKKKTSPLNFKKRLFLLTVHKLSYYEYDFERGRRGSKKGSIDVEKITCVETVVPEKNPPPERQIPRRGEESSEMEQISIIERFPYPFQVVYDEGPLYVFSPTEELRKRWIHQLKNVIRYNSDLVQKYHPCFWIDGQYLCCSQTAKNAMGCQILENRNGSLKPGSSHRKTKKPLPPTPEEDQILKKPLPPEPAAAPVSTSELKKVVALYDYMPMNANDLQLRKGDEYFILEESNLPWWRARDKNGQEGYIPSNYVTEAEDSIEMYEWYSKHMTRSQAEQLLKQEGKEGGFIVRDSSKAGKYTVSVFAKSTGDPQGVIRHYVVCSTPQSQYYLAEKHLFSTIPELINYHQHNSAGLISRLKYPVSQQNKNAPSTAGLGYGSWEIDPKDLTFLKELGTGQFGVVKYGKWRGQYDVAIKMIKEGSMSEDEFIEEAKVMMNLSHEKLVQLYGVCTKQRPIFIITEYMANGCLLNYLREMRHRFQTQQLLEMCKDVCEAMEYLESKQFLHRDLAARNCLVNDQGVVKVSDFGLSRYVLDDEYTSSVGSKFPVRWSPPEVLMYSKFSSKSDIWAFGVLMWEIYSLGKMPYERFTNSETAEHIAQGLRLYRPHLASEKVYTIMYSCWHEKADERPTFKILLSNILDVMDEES

SMILES | DC50 (BTK) [nM] | Dmax (BTK) [%] | IC50 (OCI-LY10 cells; [4]) [nM] | Mouse liver microsome Residuals at 60 min [1] [%] | IC50 (TMD8-BTK(C481S) cells; 72 h) [nM] | Human liver microsome Residuals at 60 min [3] [%] | TGI d 17 (TMD-8 xenograft tumors) [%] | TV on d 0 Mean ± SD (TMD-8 xenograft tumors) [mm^3] | TV on d 12 Mean ± SD (TMD-8 xenograft tumors) [mm^3] | TV on d 15 Mean ± SD (TMD-8 xenograft tumors) [mm^3] | further results
CN1CCN([C@@H]2CCCN(c3cnc(C(N)=O)c(Nc4ccc(C5CCN(C[C@@H]6CCC(c7ccc8c(C9CCC(=O)NC9=O)noc8c7)C6)CC5)cc4)n3)C2)C1=O (some centres unmarked) [Compound 7] | < 0.098 | 99 | < 0.31 | 42.7 |  |  |  |  |  |  | 
CN1CCN([C@@H]2CCCN(c3cnc(C(N)=O)c(Nc4ccc(C5CCN(CC6CCN(c7ccc8c(C9CCC(=O)NC9=O)noc8c7)CC6)CC5)cc4)n3)C2)C1=O (some centres unmarked) [Compound 8] | < 0.098 | 99 | < 0.31 | 54.7 | 6.9 |  |  |  |  |  | 
CN1CCN([C@@H]2CCCN(c3cnc(C(N)=O)c(Nc4ccc(C5CCN(C[C@@H]6CCC(c7cc8onc(C9CCC(=O)NC9=O)c8c8cc[nH]c78)C6)CC5)cc4)n3)C2)C1=O (some centres unmarked) [Compound 13] | < 0.098 |  |  | 56.41 |  |  |  |  |  |  | BTK degradation in OCI-LY10 cells Dmax (BTK): 100%; IC50 (OCI-LY10 cells; 72 h incubation): < 0.31 nM; IC50 [2]: < 0.31 nM
CN1CCN([C@@H]2CCCN(c3cnc(C(N)=O)c(Nc4ccc(C5CCN(C[C@@H]6CCC(c7cc8[nH]ccc8c8c(C9CCC(=O)NC9=O)noc78)C6)CC5)cc4)n3)C2)C1=O (some centres unmarked) [Compound 14] | < 0.098 |  |  | 62.41 |  |  |  |  |  |  | BTK degradation in OCI-LY10 cells Dmax (BTK): 100%; IC50 (OCI-LY10 cells; 72 h incubation): < 0.31 nM; IC50 [2]: < 0.31 nM
NC(=O)c1ncc(N2CCCCC2)nc1Nc1ccc(C2CCN(C3Cc4ccc5c(C6CCC(=O)NC6=O)noc5c4C3)CC2)cc1 (centres unmarked) [Compound 69] |  |  |  | 85.0 |  | 80.0 | 96.4 | 226 ± 21 | 246 ± 56 | 199 ± 72 | IC50 (TMD8-BTK(C481S) cells): 5.7 nM; clearance (Mouse pharmacokinetics; [5]): 2 mL/min/kg; half-life (Mouse pharmacokinetics; [5]): 2.6 h; AUC (Mouse pharmacokinetics; [6]): 8030 ng·h/mL; half-life (Mouse pharmacokinetics; [7]): 7 h; AUC (Mouse pharmacokinetics; [8]): 41400 ng·h/mL; Cmax (Mouse pharmacokinetics; [9]): 2730 ng/mL; F (Mouse pharmacokinetics; Mouse i.g. 10 mpk): 51.6%
NC(=O)c1ncc(N2CCCCC2)nc1Nc1ccc(N2CCC(CN3CCc4ccc5c(C6CCC(=O)NC6=O)noc5c4CC3)CC2)cc1 (centres unmarked) [Compound 72] |  | > 90 |  |  | 2.6 | 94.0 | 97.9 | 226 ± 21 | 246 ± 52 | 122 ± 78 | clearance (Mouse pharmacokinetics; [5]): 12 mL/min/kg; half-life (Mouse pharmacokinetics; [5]): 2.3 h; AUC (Mouse pharmacokinetics; [6]): 1290 ng·h/mL; half-life (Mouse pharmacokinetics; [7]): 4.6 h; AUC (Mouse pharmacokinetics; [8]): 8300 ng·h/mL; Cmax (Mouse pharmacokinetics; [9]): 634 ng/mL; F (Mouse pharmacokinetics; Mouse i.g. 10 mpk): 64.50%
CN1CCN([C@@H]2CCCN(c3cnc(C(N)=O)c(Nc4ccc(C5CCN(CC6Cc7ccc8c(C9CCC(=O)NC9=O)noc8c7C6)CC5)cc4)n3)C2)C1=O (some centres unmarked) [Compound 90] |  |  |  | 54.63 |  |  |  |  |  |  | BTK degradation in OCI-LY10 cells Dmax (BTK): >90%; IC50 (OCI-LY10 cells; 72 h incubation): < 0.31 nM; IC50 (TMD8-BTK(C481S) cells): 1.2 nM; AUC (Mouse pharmacokinetics; Mouse i.g. 10 mpk): 18944 ng·h/mL; Cmax (Mouse pharmacokinetics; Mouse i.g. 10 mpk): 2550 ng/mL; F (Mouse pharmacokinetics; Mouse i.g. 10 mpk): 21.0%; t1/2 (Mouse pharmacokinetics; Mouse i.g. 10 mpk): 3 h; AUC (Mouse pharmacokinetics; Mouse i.v. 1 mpk): 8882 ng·h/mL; Cl (Mouse pharmacokinetics; Mouse i.v. 1 mpk): 1.83 mL/min/kg; t1/2 (Mouse pharmacokinetics; Mouse i.v. 1 mpk): 2.7 h
CN1CCN([C@@H]2CCCN(c3cnc(C(N)=O)c(Nc4ccc(C5CCN(C6CN(c7cc8onc(C9CCC(=O)NC9=O)c8c8ccccc78)C6)CC5)cc4)n3)C2)C1=O (some centres unmarked) [Compound 93] |  | > 90 |  | 72.0 |  | 53.0 |  |  |  |  | IC50 ([2]; 72 h): 0.7 nM
NC(=O)c1ncc(N2CCCCC2)nc1Nc1ccc(C2CCN(CC3CN(c4ccc5c(C6CCC(=O)NC6=O)noc5c4)C3)CC2)cc1 (centres unmarked) [Compound 94] |  | > 90 | < 0.31 | 75.0 |  | 81.0 |  |  |  |  | IC50 ([2]; 72 h): 0.53 nM
CN1CCN([C@@H]2CCCN(c3cnc(C(N)=O)c(Nc4ccc(C5CCN(CC6CN(c7cc8onc(C9CCC(=O)NC9=O)c8c8ccccc78)C6)CC5)cc4)n3)C2)C1=O (some centres unmarked) [Compound 96] |  | > 90 | < 0.31 |  |  |  |  |  |  |  | IC50 ([2]; 72 h): 0.31 nM
NC(=O)c1ncc(N2CCCCC2)nc1Nc1ccc(C2CCN(C[C@@H]3CC[C@@H](n4ccc5c6c(C7CCC(=O)NC7=O)noc6ccc54)C3)CC2)cc1 (some centres unmarked) [Compound 104] |  |  |  |  | 16 |  | 96.0 | 226 ± 27 | 286 ± 77 | 269 ± 61 | 
NC(=O)c1ncc(N2CCCCC2)nc1Nc1ccc(C2CCN(C[C@@H]3CC[C@H](n4ccc5c6c(C7CCC(=O)NC7=O)noc6ccc54)C3)CC2)cc1 (some centres unmarked) [Compound 105] |  |  |  |  | 6.9 |  | 95.4 | 226 ± 28 | 253 ± 36 | 229 ± 49 | 
